Experimental data as given in patent US11058781B2, “Diazacarbazole derivatives as tau-PET-ligands” (Hoffmann-La Roche Inc., priority 2013, dated 2021).

Experiments:
native tau aggregates = assay: TAU radioligand in-vitro displacement assay ([3H]T808 autoradiography on AD brain sections); type: binding; conditions: human AD brain sections; radioligand [3H]T808 10 nM; 50 mM Tris pH 7.4, room temperature, 30 min
Experimental: This in vitro binding assay assesses the affinity of compounds for native tau aggregates. The compounds are co-incubated with the well-established tau specific radioligand [^3H]T808 and the compound's displacement potency of [^3H]T808 binding is determined by in vitro autoradiography using human Alzheimer's disease (AD) brain sections (see FIG. 2).
AD human brains are purchased from Banner Sun Health Research Institute (Sun City, Ariz., USA). Pathological diagnosis of AD is made according to standard NIA-Reagan Institute criteria based on neuropathological data. The radioligand [^3H]T808 was synthesized in-house ([^3H]-2-[4-(2-Fluoro-ethyl)-piperidin-1-yl]-benzo[4,5]imidazo[1,2-a]pyrimidine, radiochemical purity 99.0%). […] For the autoradiography FujiFilm Imaging Plates (BAS-IP TR 2025) are exposed to the sections and read with a FujiFilm IP reader (BAS-5000). […]
The signal intensity (Dens−PSL/mm2) in the region of interest (ROI) of the autoradiogram is quantified with the software MCID analysis (version 7.0, Imaging Research Inc.). The specific binding (SB) of [^3H]T808 binding in absence or in presence of a compound is calculated by subtracting the non-specific binding signal in the white matter, thus yielding SB[3H]T808 only and SBcompound. The % displacement by the various compounds is calculated as following: % displacement=100−(SBcompound/SB[3H]T808 only)*100. […]

tau aggregates = assay: Autoradiogram of the tritiated radioligand on a human cortical brain section (Braak V AD patient); type: binding; conditions: radioligand concentration 3.2 nM, Braak V staged AD patient
Chain of tau aggregates (P10636 623-708 limits assumed): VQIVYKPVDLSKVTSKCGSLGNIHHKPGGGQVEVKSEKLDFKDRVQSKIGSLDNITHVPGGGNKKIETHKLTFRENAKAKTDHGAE
Experimental: FIG. 1: Autoradiogram of ^3H-2-(6-fluoro-pyridin-3-yl)-9H-dipyrido[2,3-b;3′,4′-d]pyrrole.
Autoradiogram of ^3H-2-(6-fluoro-pyridin-3-yl)-9H-dipyrido[2,3-b;3′,4′-d]pyrrole incubated with a human cortical brain section obtained from a Braak V staged AD patient. The radioligand concentration was 3.2 nM.

Compound | % displacement of [^3H]T808 (10 nM) (native tau aggregates) | staining pattern in autoradiogram (tau aggregates)
Fc1ccc(-c2ccc3c(n2)[nH]c2ccncc23)cn1 [Example 1, 2-(6-Fluoro-pyridin-3-yl)-9H-dipyrido[2,3-b;3′,4′-d]pyrrole] | 43% | –
^3H-2-(6-Fluoro-pyridin-3-yl)-9H-dipyrido[2,3-b;3′,4′-d]pyrrole [Example 2] | – | punctate staining of tau aggregates in a layered distribution pattern
